From PMC7534330, “UHPLC-MS/MS method for pharmacokinetic and bioavailability determination of five bioactive components in raw and various processed products of Polygala tenuifolia in rat plasma” (Pharmaceutical Biology, 2020)

Assays:
[1] = Pharmacokinetics and absolute bioavailability of five compounds after oral and i.v. administration (UHPLC-MS/MS); format: in vivo; settings: rat, in vivo; for AUCΔ0-t (dose-normalized) / AUCΔ0-∞ (dose-normalized) / CΔmax (dose-normalized) / half-life / Tmax: SD
Protocol: (§1) A Thermo Hypersil Gold C18 column (3.0 × 100 mm, i.d.; 3 μm) was used for chromatographic separation. An aqueous 10 mM ammonium acetate solution (A) and acetonitrile (B) were selected as the mobile phase components. The optimal gradient program involved the following steps: 5% B (0–1 min), changing to 85% B (1–3.5 min), 85% B (3.5–4.0 min), changing to 5% B (4.0–4.1 min) and 5% B (4.1–5.0 min). The flow rate was set to 0.4 mL/min, the autosampler was maintained at 4 °C and the injection volume was 5 μL.
(§2) UHPLC-MS/MS was conducted by an Applied Biosystems (AB) Sciex Exion LC system (Foster City, CA) connected to a 6500 + triple quad tandem mass spectrometer with an electrospray ionization source. All detection and quantifications were carried out in positive multiple reaction monitoring (MRM) mode. The optimized parameters were programmed as follows: ion source temperature, 500 °C; curtain gas pressure, 30 kPa; ion source gas 1 pressure, 55 kPa; ion source gas 2 pressure, 55 kPa; and ion spray voltage, […]. The chemical structures and ion mass spectra of targeted compounds are shown in Figure 1. The precursor ion and product ion were m/z 517.1 → 174.9 for A5, m/z 547.0 → 204.9 for A6, m/z 753.2 → 205.2 for DSS, m/z 681.3 → 443.3 for TFSA, m/z 236.8 → 103.2 for TMCA and m/z 136.9 → 92.9 for IS. All data were acquired by using AB Sciex Analyst software (version 1.6.3).
(§3) After thawing the frozen blood samples at room temperature, a 100 μL aliquot of plasma was spiked with 50 μL of the IS working solution in 2 mL EP tubes, and 750 μL of methanol was added into each of the tubes. Then, these tubes were mixed on a multi-tube Vortexer for 0.5 min before centrifugation at 11,800×g for 10 min. Finally, 200 μL of the obtained supernatant was transferred to a fresh autosampler vial, and then 5 μL of the sample was injected for analysis.
The SD rats were randomly divided into oral and i.v. groups for A5, A6, DSS, TFSA and TMCA administration (n = 6 in each group). The oral doses of A5, A6, DSS, TFSA and TMCA groups were 7.40, 11.60, 16.00, 50.00 and 3.11 mg/kg, respectively, and the corresponding i.v. doses were 0.74, 1.16, 1.60, 5.00 and 0.31 mg/kg, respectively. Blood samples were collected from the suborbital vein into heparinized tubes before and 0, 0.083, 0.17, 0.25, 0.5, 1, 2, 3, 5 and 8 h after administration. The treatment method of blood samples was the same as that mentioned above.
(§4) The elementary pharmacokinetic parameters of plasma samples were analyzed by DAS 2.0 pharmacokinetic software. One-way analysis of variance (ANOVA) was used for statistical comparison for pharmacokinetic and interaction studies. A p-value < 0.05 indicated a significant difference. The main parameters considered were as follows: AUC0–∞ (the area under the blood concentration-time curve from zero to infinity initial plasma concentration), MRT (the mean residence time), Cmax (peak plasma concentration) and Tmax (time to reach Cmax for oral dose), t1/2 (elimination half-life) (He et al. [2015]). The absolute bioavailability (F) was evaluated as follows: F(%)=(AUCoral×Dosei.v.)/(AUCi.v.×Doseoral)×100%

[2] = Pharmacokinetics of five components in rat plasma after oral administration of RPT, LPT and HPT extracts (UHPLC-MS/MS); settings: male, SD, in vivo, 1.9 g/kg; for AUC(0-t): AUC0-t; for AUC(0-inf): AUC0-∞; for MRT last: MRT0-t; for half-life: t1/2
Protocol: as §1, §2, §3
Male SD rats were randomly divided into four groups (n = 6 in each group), including the RPT group, LPT group, HPT group and control group. All oral administration samples were mixed with 0.5% CMC-Na (w/v) and then given to rats at a dose equivalent to 1.9 g/kg of RPT extract. The control group was orally treatment with equal volume of 0.5% CMC-Na solution. After a single administration, all blood samples were collected from the orbital vein into heparinized centrifuge tubes before administration (0 h) and at 0.083, 0.17, 0.25, 0.5, 0.75, 1, 1.5, 2, 3, 5, 8 and 12 h after administration and then centrifuged at 4 °C and 11,800×g for 10 min. The separated supernatant samples were preserved at −80 °C until they were measured.
as §4

[3] = Stability of the five analytes in rat plasma; format: in vitro ADME; settings: rat; for Long-term stability, Mean: 4 weeks; for Short-term stability, Mean: 5 h; for Auto-sampler stability, Mean: 24 h
Protocol: Stock standards of A5, A6, DSS, TFSA, TMCA and IS were prepared in methanol at a concentration of 1 mg/mL. A series of working standard solutions of the targeted compounds ranging from 10 to 20,000 ng/mL and the IS solution at 600 ng/mL were prepared by diluting the stock solutions with methanol and maintained at −20 °C. Calibration standards were freshly prepared by spiking the series of standard solutions (30 μL) including the IS into blank rat plasma (270 μL) to achieve concentrations of 1, 10, 50, 100, 500, 1000, 1600 and 2000 ng/mL. Quality control (QC) samples were prepared independently at low (2 ng/mL), medium (600 ng/mL) and high (1600 ng/mL) concentrations following the same method for the five compounds.
Stability studies included short-term stability (5 h at room temperature, i.e. 25 °C), freeze-thaw stability (three consecutive freeze-thaw cycles from −20 °C to room temperature), autosampler stability (24 h storage in the autosampler at 4 °C) and long-term stability (4 weeks storage at −80 °C). The stability data of all analytes are presented in Supplementary Table S4.

In the case of `COc1cc(/C=C/C(=O)O[C@H]2[C@H](O)[C@@H](CO)O[C@@]2(CO)O[C@H]2O[C@H](CO)[C@@H](O)[C@H](O)[C@H]2O)ccc1O` [A5, Sibiricose A5], the “AUCΔ0-t (dose-normalized)” value ([1]; iv) is reported as 368.32 ± 57.16 ng·h/mL, the “AUCΔ0-∞ (dose-normalized)” value ([1]; iv) is reported as 368.34 ± 57.18 ng·h/mL and the “CΔmax (dose-normalized)” value ([1]; iv) is reported as 1784.32 ± 136.39 ng/mL. The half-life ([1]; iv) was 73.2 ± 4.2 min, the “AUCΔ0-t (dose-normalized)” value ([1]; po) was 11.99 ± 2.01 ng·h/mL and the “AUCΔ0-∞ (dose-normalized)” value ([1]; po) was 12.01 ± 2.00 ng·h/mL. For the same compound, the “CΔmax (dose-normalized)” value ([1]; po) was 9.21 ± 2.30 ng/mL, the half-life ([1]; po) was 76.2 ± 33 min and the Tmax ([1]; po) was 15 min. For the same compound, the “F, absolute bioavailability” value [1] was 3.25 % of dose, the Tmax [2] was 2.60 ± 0.71 h and the AUC(0-t) [2] was 552 ± 31.1 ng·h/mL. The AUC(0-inf) [2] was 553 ± 47.1 ng·h/mL, the Cmax [2] was 169 ± 16.1 ng/mL and the MRT last [2] was 2.64 ± 0.18 h. The Tmax ([2]; Tmax) was 2 h, the half-life [2] was 73.8 ± 12.6 min and the “Freeze-thaw stability, Mean” value ([3]; 2 ng/mL) was 92.1%. For the same compound, the “Freeze-thaw stability, Mean” value ([3]; 600 ng/mL) was 93.5%, the “Freeze-thaw stability, Mean” value ([3]; 1600 ng/mL) was 101.6% and the “Long-term stability, Mean” value ([3]; 2 ng/mL) was 88.6%. The “Long-term stability, Mean” value ([3]; 600 ng/mL) was 97.9%, the “Long-term stability, Mean” value ([3]; 1600 ng/mL) was 96.6% and the “Short-term stability, Mean” value ([3]; 2 ng/mL) was 94.4%. The “Short-term stability, Mean” value ([3]; 600 ng/mL) was 95.2%, the “Short-term stability, Mean” value ([3]; 1600 ng/mL) was 98.3% and the “Auto-sampler stability, Mean” value ([3]; 2 ng/mL) was 89.4%. For the same compound, the “Auto-sampler stability, Mean” value ([3]; 600 ng/mL) was 94.2% and the “Auto-sampler stability, Mean” value ([3]; 1600 ng/mL) was 98.7%.

With `COc1cc(C=CC(=O)OC2C(O)C(CO)OC2(CO)OC2OC(CO)C(O)C(O)C2O)cc(OC)c1O` (stereo not drawn) [A6, Sibiricose A6] the “AUCΔ0-t (dose-normalized)” value ([1]; iv) was 299.15 ± 100.23 ng·h/mL, the “AUCΔ0-∞ (dose-normalized)” value ([1]; iv) was 299.16 ± 100.23 ng·h/mL and the “CΔmax (dose-normalized)” value ([1]; iv) was 1204.66 ± 249.66 ng/mL. The half-life ([1]; iv) was 35.4 ± 6 min, the “AUCΔ0-t (dose-normalized)” value ([1]; po) was 8.82 ± 2.40 ng·h/mL and the “AUCΔ0-∞ (dose-normalized)” value ([1]; po) was 8.82 ± 2.40 ng·h/mL. The “CΔmax (dose-normalized)” value ([1]; po) was 4.95 ± 1.64 ng/mL, the half-life ([1]; po) was 37.2 ± 9.6 min and the Tmax ([1]; po) was 30 min. For the same compound, the “F, absolute bioavailability” value [1] was 2.95 % of dose, the AUC(0-t) [2] was 570 ± 179 ng·h/mL and the AUC(0-inf) [2] was 572 ± 179 ng·h/mL. The Cmax [2] was 183 ± 30.8 ng/mL, the MRT last [2] was 3.21 ± 0.78 h and the Tmax ([2]; Tmax) was 3.2 ± 1.64 h. The half-life [2] was 85.8 ± 7.2 min, the “Freeze-thaw stability, Mean” value ([3]; 2 ng/mL) was 92.4% and the “Freeze-thaw stability, Mean” value ([3]; 600 ng/mL) was 91.5%. The “Freeze-thaw stability, Mean” value ([3]; 1600 ng/mL) was 98.3%, the “Long-term stability, Mean” value ([3]; 2 ng/mL) was 93.5% and the “Long-term stability, Mean” value ([3]; 600 ng/mL) was 96.3%. For the same compound, the “Long-term stability, Mean” value ([3]; 1600 ng/mL) was 96.5%, the “Short-term stability, Mean” value ([3]; 2 ng/mL) was 91.5% and the “Short-term stability, Mean” value ([3]; 600 ng/mL) was 94.7%. The “Short-term stability, Mean” value ([3]; 1600 ng/mL) was 97.4%, the “Auto-sampler stability, Mean” value ([3]; 2 ng/mL) was 87.5% and the “Auto-sampler stability, Mean” value ([3]; 600 ng/mL) was 92.1%. The “Auto-sampler stability, Mean” value ([3]; 1600 ng/mL) was 97.3%.
